# Assay results reported in ChEMBL document CHEMBL4765414, “Rhodamine B-based fluorescent probes for molecular mechanism study of the anti-influenza activity of pentacyclic triterpenes” (Eur J Med Chem, 2020).
# Active and inactive are the calls of the source. The calls are words filed in the database; no cut-off is given here.
# How the values were obtained:
# Influenza A virus [1] = test: Antiviral activity against Influenza A virus A/WSN/33(H1N1) infected in MDCK cells assessed as inhibition of viral replication at 100 uM measured after 36 hrs by CellTiter-Glo assay; assay type: functional, organism-based; details: A/WSN/1933(H1N1)
# Influenza A virus [2] = test: Antiviral activity against Influenza A virus A/WSN/33(H1N1) infected in MDCK cells assessed as inhibition of viral replication measured after 36 hrs by CellTiter-Glo assay; assay type: functional, organism-based; details: A/WSN/1933(H1N1)
# MDCK = test: Cytotoxicity against dog MDCK cells assessed as reduction in cell viability at 50 uM measured after 36 hrs by Celltiter-Glo luminescence assay; assay type: cell-based, Canis lupus familiaris
# Influenza A virus [3] = test: Antiviral activity against Influenza A virus A/WSN/33(H1N1) infected in MDCK cells assessed as inhibition of virus-induced cytopathic effects at 50 uM after 36 hrs by microscopic analysis; assay type: functional, A/WSN/1933(H1N1); set-up: scale not given: the % may be the effect or the level left
# [4] = Cytotoxicity against dog MDCK cells assessed as reduction in cell viability measured after 36 hrs by Celltiter-Glo luminescence assay; assay type: cell-based, Canis lupus familiaris
# [5] = Selectivity ratio of CC50 for MDCK cells to IC50 for Influenza A virus A/WSN/33(H1N1) infected in MDCK cells; assay type: toxicity, cell-based; details: dog, read-out: Ratio CC50/IC50
# [6] = Binding affinity to recombinant influenza A virus A/WSN/33(H1N1) hemagglutin assessed as dissociation constant by surface plasmon resonance assay; set-up: species or system Influenza A virus (A/WSN/1933(H1N1))
# [7] = test system: Influenza A virus (A/WSN/1933(H1N1)); test: Binding affinity to recombinant influenza A virus A/WSN/33(H1N1) hemagglutin assessed as association constant by surface plasmon resonance assay
# [8] = Binding affinity to recombinant influenza A virus A/WSN/33(H1N1) hemagglutin by surface plasmon resonance assay; set-up: species or system Influenza A virus (A/WSN/1933(H1N1))
# Influenza A virus [9] = test: Antiviral activity against Influenza A virus A/WSN/33(H1N1) infected in MDCK cells assessed as inhibition of virus-induced cell death at 50 uM cotreated with virus and cells for 1 hrs and measured after 36 hrs; assay type: functional, A/WSN/1933(H1N1); set-up: scale not given: the % may be the effect or the level left; details: time 37 hrs
# Influenza A virus [10] = test: Antiviral activity against Influenza A virus A/WSN/33(H1N1) infected in MDCK cells assessed as inhibition of virus-induced cell death at 50 uM preincubated with cells for 30 mins followed by viral infection for 1 hr and measured after 36 hrs; assay type: functional, A/WSN/1933(H1N1); set-up: scale not given: the % may be the effect or the level left; details: time 2250 min, 37.5 h
# Influenza A virus [11] = test: Antiviral activity against Influenza A virus A/WSN/33(H1N1) infected in MDCK cells assessed as inhibition of virus-induced cell death at 50 uM preincubated with virus for 30 mins followed by cell infection for 1 hr and measured after 36 hrs; assay type: functional, A/WSN/1933(H1N1); set-up: scale not given: the % may be the effect or the level left; details: time 2250 min, 37.5 h
# Erythrocyte = test: Inhibition of Influenza A virus A/WSN/33(H1N1) hemagglutinin assessed as inhibition of chicken erythrocytes hemagglutination upto 20 uM incubated for 30 mins; assay type: cell-based; details: Influenza A virus (A/WSN/1933(H1N1)), dose microM <=20, time 30.0 min
# [12] = Drug localization in cell membrane of MDCK cells at 25 uM incubated for 1 to 3 hrs by DOI staining based confocal microscopy analysis; assay type: ADME, cell membranes, Canis lupus familiaris; details: dog, time 1-3 hrs
# [13] = Drug localization in cytoplasm of MDCK cells at 25 uM incubated for 12 hrs by confocal microscopy analysis; assay type: ADME, subcellular, Canis lupus familiaris; details: dog
# [14] = Stability of compound in dog MDCK cells after 36 hrs; assay type: ADME, cell-based, Canis lupus familiaris
# [15] = Drug uptake in dog MDCK cells assessed as increase in red fluorescence at 25 uM incubated for 1 hr by flow cytometry analysis; assay type: ADME, cell-based, Canis lupus familiaris
# [16] = Drug uptake in dog MDCK cells assessed as increase in red fluorescence at 25 uM incubated for 3 hrs by flow cytometry analysis; assay type: ADME, cell-based, Canis lupus familiaris
# [17] = Drug uptake in dog MDCK cells assessed as increase in red fluorescence at 25 uM incubated for 36 hrs by flow cytometry analysis; assay type: ADME, cell-based, Canis lupus familiaris
# Influenza A virus [18] = test: Antiviral activity against Influenza A virus A/WSN/33(H1N1) infected in MDCK cells assessed as reduction in antiviral activity preincubated with cells for 3 hrs followed by viral infection; assay type: functional, A/WSN/1933(H1N1); set-up: scale not given: the % may be the effect or the level left
# Influenza A virus [19] = test: Antiviral activity against Influenza A virus A/WSN/33(H1N1) infected in MDCK cells preincubated with cells for 5 hrs followed by viral infection; assay type: functional, organism-based; details: A/WSN/1933(H1N1)
# Influenza A virus [20] = test: Antiviral activity against Influenza A virus A/WSN/33(H1N1) infected in MDCK cells preincubated with cells for 12 hrs followed by viral infection; assay type: functional, organism-based; details: A/WSN/1933(H1N1)
smiles,measurement,setting,value
CCN(CC)c1ccc2c(-c3ccccc3C(=O)O)c3ccc(=[N+](CC)CC)cc-3oc2c1 [RHODAMINE],Activity,Influenza A virus [1],inactive
same,IC50,Influenza A virus [2],> 100 µM
CCN(CC)c1ccc2c(c1)Oc1cc(N(CC)CC)ccc1C21c2ccccc2C(=O)N1CCNC(=O)[C@]12CCC(C)(C)C[C@@H]1C1=CC[C@@H]3[C@@]4(C)CC[C@H](O)C(C)(C)[C@@H]4CC[C@@]3(C)[C@]1(C)CC2,Activity,MDCK,Non-Toxic
same,IC50,Influenza A virus [2],14.3 µM
same,Activity,Influenza A virus [3],>90%
C=C(C)[C@@H]1CC[C@]2(C(=O)NCCN3C(=O)c4ccccc4C34c3ccc(N(CC)CC)cc3Oc3cc(N(CC)CC)ccc34)CC[C@]3(C)[C@H](CC[C@@H]4[C@@]5(C)CC[C@H](O)C(C)(C)[C@@H]5CC[C@]43C)[C@@H]12,Activity,MDCK,Non-Toxic
same,IC50,Influenza A virus [2],8.36 µM
same,CC50 at 36 h,[4],324 µM
same,selectivity ratio,[5],38.8
CC1(C)CC[C@]2(C(=O)O)CC[C@]3(C)C(=CC[C@@H]4[C@@]5(C)CC[C@H](O)C(C)(C)[C@@H]5CC[C@]43C)[C@H]2C1,Activity,Influenza A virus [3],17%
CCN(CC)c1ccc2c(c1)Oc1cc(N(CC)CC)ccc1C21c2ccccc2C(=O)N1CCNC(=O)[C@]12CCC(C)(C)C[C@@H]1C1=CC[C@@H]3[C@@]4(C)CC[C@H](O)C(C)(C)[C@@H]4CC[C@@]3(C)[C@]1(C)C[C@H]2O,Activity,MDCK,Non-Toxic
same,IC50,Influenza A virus [2],13.3 µM
same,Activity,Influenza A virus [3],>90%
C[C@H]1[C@H](C)CC[C@]2(C(=O)O)CC[C@]3(C)C(=CC[C@@H]4[C@@]5(C)CC[C@H](O)C(C)(C)[C@@H]5CC[C@]43C)[C@@H]12,Kd,[6],7.1 10^-2/s
same,Ka,[7],1.73 10^3/M.s
same,Activity,Influenza A virus [3],31%
same,Kd,[8],41 µM
CCN(CC)c1ccc2c(c1)Oc1cc(N(CC)CC)ccc1C21c2ccccc2C(=O)N1CCNC(=O)[C@]12CC[C@@H](C)[C@H](C)[C@@H]1C1=CC[C@@H]3[C@@]4(C)CC[C@H](O)C(C)(C)[C@@H]4CC[C@@]3(C)[C@]1(C)CC2,Kd,[6],4.14 10^-2/s
same,Ka,[7],2.33 10^3/M.s
same,Activity,MDCK,Non-Toxic
same,IC50,Influenza A virus [2],8.24 µM
same,CC50 at 36 h,[4],368 µM
same,selectivity ratio,[5],44.7
same,Activity,Influenza A virus [3],>90%
same,Activity,Influenza A virus [3]; A/WSN/1933(H1N1),Active
same,Activity,Influenza A virus [9],91%
same,Activity,Influenza A virus [10],15%
same,Activity,Influenza A virus [11],95%
same,inhibition,Erythrocyte,Active
same,Kd,[8],17.8 µM
same,Drug uptake,[12],Active
same,Drug uptake,[13],Active
same,Stabilty,[14],Stable
same,Drug uptake,[15],52.4%
same,Drug uptake,[16],62.6%
same,Drug uptake,[17],97.5%
same,Activity,Influenza A virus [18],25%
same,Activity,Influenza A virus [19],inactive
same,Activity,Influenza A virus [20],inactive
